According to patent US20240208909A1, “SUBSTITUTED QUINOLINE DERIVATIVES HAVING SOS1 INHIBITION ACTIVITIES AND USES THEREOF” (Accutar Biotechnology Inc., priority 2022, published 2024):

How the values were obtained:
[1] = tested on: Phospho-ERK1/2 in DLD1 cells; assay: Phospho-ERK1/2 expression inhibition in DLD1 cells; format: cell-based; conditions: Homo sapiens, DLD-1, 4 hours, read-out: DLD1 pERK IC50
Method: Example 23: Phospho-ERK1/2 Expression Inhibition in DLD1 Cells
DLD1 cells were obtained from American Type Culture Collection (ATCC). DLD1 cells were plated in 96-well plates (VWR #10062-900, or Corning #3904) in 90 uL culture medium at a density of 15,000 cells/well in the RPM11640 growth medium containing 10% FBS and 1% Penicillin Streptomycin, and then incubated at 37° C. overnight. The following day, the test compound was administered to the cells by using 1000×x compound stock solution prepared in DMSO at various concentrations. 1000× compound stock solution was first diluted in culturing medium to 10×, then 10 uL compound medium was added to each well in the cell plates. After administration of the compound, the cells were then incubated at 37° C. for 4 hours. Upon completion, the cells were washed with PBS briefly. 150 uL/well of 4% formaldehyde was added and the plates were incubated at room temperature for 20 mins. The cells were washed with PBS briefly, and permeabilized with 150 uL/well of ice cold 100% methanol for 10 mins. The cells were washed with PBS briefly and blocked with 100 uL/well LI-COR blocking buffer for 1 hr at room temperature with gentle shaking. The cells were incubated overnight at 4° C. with 50 uL primary antibody rabbit anti-Phospho-ERK1/2 (1: 500, Cell Signaling, #4370) diluted in Intercept Blocking Buffer (LI-COR, #927-60001) containing 0.1% Tween 20. The next day, the cells were washed with 200 uL PBS containing 0.1% Tween 20, 5×5 mins at room temperature with gentle shaking, and incubated with 50 uL secondary antibody, IRDye® 800CW Goat anti-Rabbit IgG (LI-COR, #926-32211), 1:1000, in LI-COR blocking buffer with 0.2% Tween 20 for 1 hr at room temperature with gentle shaking. The cells were washed with 200 uL PBS containing 0.1% Tween 20, 5×5 mins at room temperature with gentle shaking. The cells were washed with PBS for 5 mins. 100 uL fresh PBS was added to each well and the plates were imaged on a LI-COR Odyssey CLX plate reader.

[2] = target: SOS1/KRAS-G12D (Homo sapiens (Human), UniProt Q07889); assay: SOS1/KRAS-G12D binding inhibition assay (AlphaScreen); conditions: GST-SOS1 and 6*His KRAS-G12D, read-out: KrasG12D/SOS1 binding IC50
Method: Example 22: SOS1/KRAS-G12D Binding Inhibition Assay
SOS1 binding affinity of candidate compounds was measured by monitoring the interaction of SOS1 with KRAS-G12D in the presence of the test compound. Briefly, 5 nM GST tagged SOS1 proteins (final concentration) were pre-incubated with 50 nM 6*His tagged KRAS-G12D proteins (final concentration) in an assay buffer containing 10 mM HEPES, pH 7.4, 150 mM NaCl, 1 mM DTT, 5 mM MgCl2, 0.1% Tween-20, and 0.05% BSA for 30 minutes. The test compounds in 2% DMSO (final concentration) at various concentrations were then added to the reaction mixture and incubated for another 30 minutes at 4° C. 5 ug/ml GSH AlphaScreen donor beads (PerkinElmer, 6765300) and 5 ug/ml nickel chelate (Ni-NTA) AlphaScreen acceptor beads (PerkinElmer, 6760619C) (final concentrations) were then added to the mixture. After an incubation of 2 hours at 4° C., the fluorescent signals were obtained on the EnVision® 2105 Multilabel Plate Reader (PerkinElmer).
Raw AlphaScreen data were converted to a percentage of inhibition (relative to DMSO) using the following equations: • a) For a given test compound concentration X:
Signal (X)=Signal (SOS1 & KRAS-G12D & compound)-Signal (buffer & KRAS-G12D & compound)
Percentage of inhibition at concentration X=[1−Signal (X)/Signal (DMSO)]*100% b)
The IC50 values were determined by nonlinear regression of plots of [inhibitor] vs. percentage of inhibition with variable slope, analyzed using GraphPad Prism 9.

[3] = tested on: K562 cells; assay: Cell growth inhibition of K562 cells (CellTiter-Glo); format: cell-based; conditions: Homo sapiens, 120 h, 5 days
Method: Example 24: Cell Growth Inhibition of K562 Cells
K562 cells were obtained from American Type Culture Collection (ATCC). For cell growth assay, K562 cells were seeded in 96-well plates at 1000 cells/well in 90 μl of RPM11640 growth medium containing 10% FBS and 1% Penicillin Streptomycin, and then incubated at 37° C. for 1 hour. The test compound was administered to the cells by using 1000× compound stock solution prepared in DMSO at various concentrations. 1000× compound stock solution was first diluted in culturing medium to 10×, then 10 uL compound medium was added to each well in the cell plates. After administration of the compound, the cells were then incubated at 37° C. for 5 days. Upon completion, the plates were equilibrated at room temperature for approximately 10 minutes. 100 ul of CellTiter-Glo® Reagent (Promega) was added to each well. The plates were then incubated at room temperature for 10 minutes and luminescence was recorded by EnSpire plate reader (PerkinElmer).

Sequence of SOS1/KRAS-G12D (Q07889 564-1049 limits assumed): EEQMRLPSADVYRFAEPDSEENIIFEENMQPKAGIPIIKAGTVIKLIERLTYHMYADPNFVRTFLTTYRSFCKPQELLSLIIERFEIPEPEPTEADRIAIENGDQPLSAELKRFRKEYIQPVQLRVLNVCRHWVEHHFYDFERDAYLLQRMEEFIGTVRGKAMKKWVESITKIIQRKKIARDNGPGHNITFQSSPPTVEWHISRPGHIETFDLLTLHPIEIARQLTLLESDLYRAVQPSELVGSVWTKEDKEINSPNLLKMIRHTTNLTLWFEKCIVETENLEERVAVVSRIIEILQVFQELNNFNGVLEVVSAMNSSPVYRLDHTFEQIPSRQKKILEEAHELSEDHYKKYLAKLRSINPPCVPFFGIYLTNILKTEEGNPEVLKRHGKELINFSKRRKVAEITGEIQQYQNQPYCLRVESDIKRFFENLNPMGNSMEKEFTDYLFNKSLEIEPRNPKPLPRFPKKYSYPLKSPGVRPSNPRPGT

| Structure (SMILES) | IC50 [1] | IC50 [2] | GI50 [3] |
| --- | --- | --- | --- |
| CC(=O)N1CCN(c2ccc3nccc(N[C@H](C)c4cccc(C(F)(F)F)c4C)c3c2)C[C@@H]1C [Compound 33, 1-((S)-2-methyl-4-(4-(((R)-1-(2-methyl-3-(trifluoromethyl)phenyl)ethyl)amino)quinolin-6-yl)piperazin-1-yl)ethan-1-one] | > 0.5 µM | > 0.1 µM | 0.1 to 0.5 µM |
| Cc1c([C@@H](C)Nc2ccnc3ccc(N4CCN(c5nccs5)CC4)cc23)cccc1C(F)(F)F [Compound 34, (R)-N-(1-(2-methyl-3-(trifluoromethyl)phenyl)ethyl)-6-(4-(thiazol-2-yl)piperazin-1-yl)quinolin-4-amine] | > 0.5 µM | > 0.1 µM | 0.1 to 0.5 µM |
| Cc1c([C@@H](C)Nc2ccnc3ccc(N4CCNC(C)(C)C4)cc23)cccc1C(F)(F)F [Compound 35] | > 0.5 µM | 0.01 to 0.1 µM | 0.1 to 0.5 µM |
| CC(=O)N1CCN(c2ccc3nccc(N[C@H](C)c4cccc(C(F)(F)F)c4C)c3c2)CC1(C)C [Compound 36, (R)-1-(2,2-dimethyl-4-(4-((1-(2-methyl-3-(trifluoromethyl)phenyl)ethyl)amino)quinolin-6-yl)piperazin-1-yl)ethan-1-one] | > 0.5 µM | 0.01 to 0.1 µM | 0.1 to 0.5 µM |
| CC(=O)N[C@@H]1CCN(c2ccc3nccc(N[C@H](C)c4cccc(C(F)(F)F)c4C)c3c2)C1 [Compound 38, N-((R)-1-(4-(((R)-1-(2-methyl-3-(trifluoromethyl)phenyl)ethyl)amino)quinolin-6-yl)pyrrolidin-3-yl)acetamide] | > 0.5 µM | > 0.1 µM | > 0.5 µM |
| CC(=O)N[C@H]1CCN(c2ccc3nccc(N[C@H](C)c4cccc(C(F)(F)F)c4C)c3c2)C1 [Compound 39, N-((S)-1-(4-(((R)-1-(2-methyl-3-(trifluoromethyl)phenyl)ethyl)amino)quinolin-6-yl)pyrrolidin-3-yl)acetamide] | > 0.5 µM | > 0.1 µM | > 0.5 µM |
| CC(=O)N1CCC(O)(c2ccc3nccc(N[C@H](C)c4cccc(C(F)F)c4F)c3c2)CC1 [Compound 40, (R)-1-(4-(4-((1-(3-(difluoromethyl)-2-fluorophenyl)ethyl)amino)quinolin-6-yl)-4-hydroxypiperidin-1-yl)ethan-1-one] | 0.15 to 0.5 µM | ≤ 0.01 µM | ≤ 0.1 µM |
| CC(=O)N1CCC(F)(c2ccc3nccc(N[C@H](C)c4cccc(C(F)F)c4F)c3c2)CC1 [Compound 41, (R)-1-(4-(4-((1-(3-(difluoromethyl)-2-fluorophenyl)ethyl)amino)quinolin-6-yl)-4-fluoropiperidin-1-yl)ethan-1-one] | 0.15 to 0.5 µM | ≤ 0.01 µM | ≤ 0.1 µM |
| C[C@@H](Nc1ccnc2ccc(N3CC[C@@H](O)C3)cc12)c1cccc(C(F)F)c1F [Compound 42, (R)-1-(4-(((R)-1-(3-(difluoromethyl)-2-fluorophenyl)ethyl)amino)quinolin-6-yl)pyrrolidin-3-ol] | ≤ 0.15 µM | ≤ 0.01 µM | ≤ 0.1 µM |
| C[C@@H](Nc1ccnc2ccc(N3CC[C@H](O)C3)cc12)c1cccc(C(F)F)c1F [Compound 43, (S)-1-(4-(((R)-1-(3-(difluoromethyl)-2-fluorophenyl)ethyl)amino)quinolin-6-yl)pyrrolidin-3-ol] | 0.15 to 0.5 µM | ≤ 0.01 µM | 0.1 to 0.5 µM |
| CN[C@@H]1CCN(c2ccc3nccc(N[C@H](C)c4cccc(C(F)F)c4F)c3c2)C1 [Compound 44, N-((R)-1-(3-(difluoromethyl)-2-fluorophenyl)ethyl)-6-((R)-3-(methylamino)pyrrolidin-1-yl)quinolin-4-amine] | > 0.5 µM | ≤ 0.01 µM | ≤ 0.1 µM |
| Cc1c([C@@H](C)Nc2ccnc3ccc(N4CCn5c(C)nnc5C4)cc23)cccc1C(F)(F)F [Compound 45, (R)-N-(1-(2-methyl-3-(trifluoromethyl)phenyl)ethyl)-6-(3-methyl-5,6-dihydro-[1,2,4]triazolo[4,3-a]pyrazin-7(8H)-yl)quinolin-4-amine] | > 0.5 µM | 0.01 to 0.1 µM | 0.1 to 0.5 µM |
| Cc1c([C@@H](C)Nc2ccnc3ccc(N4CCN(C(=O)C(C)C)CC4)cc23)cccc1C(F)(F)F [Compound 46, (R)-2-methyl-1-(4-(4-((1-(2-methyl-3-(trifluoromethyl)phenyl)ethyl)amino)quinolin-6-yl)piperazin-1-yl)propan-1-one] | 0.15 to 0.5 µM | 0.01 to 0.1 µM | 0.1 to 0.5 µM |
| COc1cc2nccc(N[C@H](C)c3cccc(C(F)(F)F)c3C)c2cc1N1CCN(C(=O)C2COC2)CC1 [Compound 47] | > 0.5 µM | 0.01 to 0.1 µM | 0.1 to 0.5 µM |
| C[C@@H](Nc1ccnc2ccc(N3CCOCC3)cc12)c1cccc(C(F)F)c1F [Compound 48, (R)-N-(1-(3-(difluoromethyl)-2-fluorophenyl)ethyl)-6-morpholinoquinolin-4-amine] | ≤ 0.15 µM | ≤ 0.01 µM | ≤ 0.1 µM |
| C[C@@H](Nc1ccnc2ccc(N3CCC(N)CC3)cc12)c1cccc(C(F)F)c1F [Compound 49, (R)-6-(4-aminopiperidin-1-yl)-N-(1-(3-(difluoromethyl)-2-fluorophenyl)ethyl)quinolin-4-amine] | > 0.5 µM | ≤ 0.01 µM | 0.1 to 0.5 µM |
| Cc1c([C@@H](C)Nc2ccnc3ccc(N4CCN[C@H](C)C4)cc23)cccc1C(F)(F)F [Compound 50, N-((R)-1-(2-methyl-3-(trifluoromethyl)phenyl)ethyl)-6-((R)-3-methylpiperazin-1-yl)quinolin-4-amine] | > 0.5 µM | 0.01 to 0.1 µM | 0.1 to 0.5 µM |
| CC(=O)N1CCN(c2ccc3nccc(N[C@H](C)c4cccc(C(F)(F)F)c4C)c3c2)C[C@H]1C [Compound 51, 1-((R)-2-methyl-4-(4-(((R)-1-(2-methyl-3-(trifluoromethyl)phenyl)ethyl)amino)quinolin-6-yl)piperazin-1-yl)ethan-1-one] | > 0.5 µM | 0.01 to 0.1 µM | 0.1 to 0.5 µM |
| Cc1c([C@@H](C)Nc2ccnc3ccc(N4CCN(CC(F)(F)F)CC4)cc23)cccc1C(F)(F)F [Compound 52, (R)-N-(1-(2-methyl-3-(trifluoromethyl)phenyl)ethyl)-6-(4-(2,2,2-trifluoroethyl)piperazin-1-yl)quinolin-4-amine] | > 0.5 µM | > 0.1 µM | > 0.5 µM |
| Cc1c([C@@H](C)Nc2ccnc3ccc(N4CCN(C(=O)C5CCCO5)CC4)cc23)cccc1C(F)(F)F (stereo partly drawn) [Compound 53, (4-(4-(((R)-1-(2-methyl-3-(trifluoromethyl)phenyl)ethyl)amino)quinolin-6-yl)piperazin-1-yl)(tetrahydrofuran-2-yl)methanone] | > 0.5 µM | 0.01 to 0.1 µM | 0.1 to 0.5 µM |
